Reference: patent publication US20210267948A1, “TREATMENT OF CANCER” (CITY OF HOPE, priority 2017, published 2021)

Test: GLP toxicity study in rats
Format: in vivo
Details: for Toxicity: Sprague-Dawley rats, top dose 125 mg/kg
Description: Toxicity studies in rats and dogs at doses equivalent to 10× that dose have not shown toxicity at 10 or 21 days.

With O=C(Nc1nc(-c2ccc(O)c(O)c2)c(-c2ccccc2)s1)c1ccc(O)c(O)c1 [COH29, N-(4-(3,4-dihydroxyphenyl)-5-phenylthiazol-2-yl)-3,4-dihydroxybenzamide] the Toxicity (10 days) was “none”, the Toxicity (21 days) was “none” and the NOAEL (Sprague-Dawley, rat, in vivo) was 250 mg/kg/day.
